The test system of assay [1] is hamsters. Kind of assay: antifertility activity by oral route, hamsters. The settings on record: Mesocricetus auratus, p.o. The class given is in vivo, hamster. On the procedure: (§1) Representative experiments for assessing antifertility activity were carried out with female Syrian golden hamsters weighing 100 to 130 g. The animals were mated and the presence of sperm in the vagina was taken as evidence of mating. The day sperm was detected was considered day one of pregnancy, since in our laboratories and those of other investigators 90 to 100% of animals that mate as evidenced by vaginal sperm are pregnant.
(§2) Pregnancy was later confirmed at the time of autopsy by presence of fetuses or implantation sites in the uterus. Even if an animal aborts the fetus, implantation scars still remain as evidence that the animal has been pregnant. […] The animals were autopsied on day 14 of pregnancy and the uteri were examined for evidence of pregnancy (implantation sites, fetal resorptions or live fetuses), hemorrhage, and evidence of abnormalities of the uterus, placenta or fetuses. A compound was considered to be active if there was a reduction of live fetuses in at least 60% of the treated animals and the presence of implantation sites proves the animal to have been pregnant.
The compounds were then studied for dose-activity relationships and the corresponding ED50 values i.e., 100% activity (absence of live fetuses) in 50% of the animals, were also determined. The following Table reports the ED50 values of some representative compounds of the invention:
Favorable results were also obtained by administering the compounds of the invention by oral route. The experiments for assessing this property were carried out on hamsters following the same procedures as above, with the obvious exception that the compounds were administered orally instead of subcutaneously.

The subject of assay [2] is female Syrian golden hamsters. Kind of assay: post-coital-post-implantation antifertility activity, s.c., hamsters. The assay is classed as in vivo, Syrian golden hamster. The settings on record: Mesocricetus auratus, sc, sesame oil containing 20% benzyl benzoate, daily for 5 days (days 4-8 of pregnancy), autopsy day 14, read-out: ED50 (100% activity, absence of live fetuses, in 50% of the animals). Here is the method: as §1, §2
The compounds were then studied for dose-activity relationships and the corresponding ED50 values i.e., 100% activity (absence of live fetuses) in 50% of the animals, were also determined. The following Table reports the ED50 values of some representative compounds of the invention: […]

For assay [3], the system named is female Sprague-Dawley rats. Kind of assay: anti-reproductive activity, s.c., rats. The settings on record: Rattus norvegicus, sc, five consecutive days from day 6 of pregnancy, autopsy day 16. The class given is in vivo, Sprague-Dawley rat. On the procedure:
The same criteria and experimental conditions as above were also applied when the anti-reproductive activity of the compounds of the invention was investigated in other animal species such as, for instance, rats, dogs, monkeys and baboons.
In representative experiments, female Sprague-Dawley rats weighing from 200 to 300 g. were treated subcutaneously with a dosage of 20 mg/kg of the compound to be tested, dissolved in sesame oil containing 20% of benzyl benzoate, for five consecutive days starting from day 6 of pregnancy.

Assay [4] has as its system hamsters. Kind of assay: antifertility activity by intravaginal route, hamsters. The settings on record: Mesocricetus auratus. The assay is classed as in vivo, hamster.

In general, ED50 refers to the dose at which the effect has come halfway, by size or by number of responders. Regarding `c1ccc(-c2ccc(-c3cn4ccc5ccccc5c4n3)cc2)cc1` [Example 6, 2-[(1,1'-Biphenyl)-4-yl]-imidazo[2,1-a]isoquinoline], the ED50 is 0.3 mg/kg in assay [1] and 0.02 mg/kg in assay [2].
Turning to `c1ccc(-c2ccc(-c3nc4c5ccccc5ccn4n3)cc2)cc1` [Example 1, 2-[(1,1'-Biphenyl)-4-yl]-1,2,4-triazolo[5,1-a]isoquinoline], the 50% effective dose (ED50) in assay [1] is 0.2 mg/kg; in assay [3], 0.55 mg/kg; in assay [4] it was around 0.2 mg/kg; in assay [2] it was 0.015 mg/kg.
For the molecule `c1ccc(-c2ccc(-c3nc4n(n3)Cc3ccccc3-4)cc2)cc1` [Example 4, 2-[(1,1'-Biphenyl)-4-yl]-5H-1,2,4-triazolo[5,1-a]isoindole], the ED50 in assay [2] amounted to 0.7 mg/kg.
For the molecule `c1ccc(-c2ccc(-c3nc4n(n3)CCc3ccccc3-4)cc2)cc1` [Example 3, 2-[(1,1'-Biphenyl)-4-yl]-5,6-dihydro-1,2,4-triazolo[5,1-a]isoquinoline], the figures for the ED50 in assay [1] and in assay [2] were 0.5 mg/kg and 0.05 mg/kg, respectively.

Source of the values: patent publication US4275066A, “Antireproductive tricyclic ortho-fused nitrogen containing compounds” (Gruppo Lepetit S.p.A., priority 1979, dated 1981).
